The values below come from PubChem BioAssay AID192 (DTP/NCI, 2004).

The experiment has as its system BDF1 mice, B16 melanoma ip, median survival T/C. Briefly: NCI In Vivo Anticancer Drug Screen. Data for tumor model B16 Melanoma (intraperitoneal) in B6D2F1 (BDF1) mice. As to conditions: endpoint: median survival time, higher = longer survival. Summed up:
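Mice with transplantable tumors; drug vs vehicle groups; endpoint survival or tumor size; value = T/C.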

[1] abbreviates: dose: 25.0 mg/kg/injection, schedule: Q01DX009 (ip), vehicle: saline.
[2] abbreviates: dose: 50.0 mg/kg/injection, schedule: Q01DX009 (ip), vehicle: saline.
Where [3] appears, read: dose: 100.0 mg/kg/injection, schedule: Q01DX009 (ip), vehicle: saline.
Where [4] appears, read: dose: 100.0 mg/kg/injection, schedule: Q04DX003 (ip), vehicle: Klucel (hydroxypropylcellulose) (HPC).
[5] abbreviates: dose: 200.0 mg/kg/injection, schedule: Q04DX003 (ip), vehicle: Klucel (hydroxypropylcellulose) (HPC).
[6] abbreviates: dose: 1.56 mg/kg/injection, schedule: Q01DX009 (ip), vehicle: Klucel (hydroxypropylcellulose) (HPC).
The mark [7] stands for this setting: dose: 50.0 mg/kg/injection, schedule: Q01DX009 (ip), vehicle: Klucel (hydroxypropylcellulose) (HPC).
[8] abbreviates: dose: 100.0 mg/kg/injection, schedule: Q01DX009 (ip), vehicle: Klucel (hydroxypropylcellulose) (HPC).
Where [9] appears, read: dose: 200.0 mg/kg/injection, schedule: Q01DX009 (ip), vehicle: Klucel (hydroxypropylcellulose) (HPC).
Setting [10] is: dose: 400.0 mg/kg/injection, schedule: Q01DX009 (ip), vehicle: Klucel (hydroxypropylcellulose) (HPC).
The mark [11] stands for this setting: dose: 50.0 mg/kg/injection, schedule: Q01DX009 (ip), vehicle: saline with Tween-80.
Setting [12] is: dose: 100.0 mg/kg/injection, schedule: Q01DX009 (ip), vehicle: saline with Tween-80.
Where [13] appears, read: dose: 200.0 mg/kg/injection, schedule: Q01DX009 (ip), vehicle: saline with Tween-80.
[14] abbreviates: dose: 12.5 mg/kg/injection, schedule: Q01DX009 (ip), vehicle: Klucel (hydroxypropylcellulose) (HPC).

Values joined by “and” are separate entries in the source; they are usually repeats but may differ in a detail not shown here. Equal values may be shown once. Toxic doses and inconclusive results are not listed.

For the compound `CCN1Cc2ccc(O)cc2C1`, the T/C was 98 % of control under setting [1], 100 % of control under setting [2] and 97 % of control under setting [3].

Regarding `COc1cc(C(=O)CC(O)(C(F)(F)F)C(F)(F)F)cc(OC)c1OC`, the T/C is, setting by setting: (dose: 50.0 mg/kg/injection, schedule: Q04DX003 (ip), vehicle: Klucel (hydroxypropylcellulose) (HPC)) 100 % of control; under setting [4], 110 % of control; under setting [5], 97 % of control.

As to `Oc1ccccc1C=NCC[N-]CCN=Cc1ccccc1O.[Cu+]`, the T/C is 97 % of control (dose: 0.39 mg/kg/injection, schedule: Q01DX009 (ip), vehicle: Klucel (hydroxypropylcellulose) (HPC)); 96 % of control (dose: 0.78 mg/kg/injection, schedule: Q01DX009 (ip), vehicle: Klucel (hydroxypropylcellulose) (HPC)); 90 % of control under setting [6].

On to `CCCCCCCCCCCCCCOC(=O)Cl`, for which the T/C was 90 % of control under setting [7], 92 % of control under setting [8], 96 % of control under setting [9] and 91 % of control under setting [10].

As for `CCC(C)C1NC(=O)C(NC(=O)c2c3nc4c(C(=O)NC5C(=O)NC(C(C)CC)C(=O)N6CCCC6C(=O)N(C)CC(=O)N(C)C(C(C)C)C(=O)OC5C)cc(N)c(C)c4oc-3c(C)c(=O)c2N)C(C)OC(=O)C(C(C)C)N(C)C(=O)CN(C)C(=O)C2CCCN2C1=O` (stereo not given), the T/C by setting is: (dose: 12.5 micrograms/kg/injection, schedule: Q01DX009 (ip), vehicle: water) 110 % of control; (dose: 25.0 micrograms/kg/injection, schedule: Q01DX009 (ip), vehicle: water) 104 % of control; (dose: 118.0 micrograms/kg/injection, schedule: Q01DX009 (ip), vehicle: water) 161 % of control; (dose: 400.0 micrograms/kg/injection, schedule: Q01DX009 (ip), vehicle: water) 159 % of control.

Consider `CC(=O)C1=C(C)NC(C)=C(C(C)=O)C1C`, for which the T/C reads like this: under setting [11], 100 % of control; under setting [12], 95 % of control; under setting [13], 102 % of control.

As to `CCCCNc1cc(Nc2ccc(Br)cc2)nc(N)n1`, the T/C was 95 % of control under setting [11] and 91 % of control under setting [12].

For the compound `CCCC1(CCC)CN(CO)C1=O`, the T/C (dose: 12.5 mg/kg/injection, schedule: Q01DX009 (ip), vehicle: saline) was 100 % of control; the T/C under setting [1] was 100 % of control; the T/C under setting [2] is 106 % of control; the T/C under setting [3] was 111 % of control; the T/C (dose: 200.0 mg/kg/injection, schedule: Q04DX003 (ip), vehicle: saline) is 91 % of control.

In the case of `CCCCCCOP(=O)(CCCCCC)OCCCCCC`, the T/C runs as follows: under setting [14], 91 % of control; under setting [7], 94 % of control; under setting [8], 97 % of control.

Regarding `C/C(C/C(C)=N/O)=N/O.C/C(C/C(C)=N/O)=N\O.[Cl][Rh][Cl]`, the T/C runs as follows: under setting [11], 96 % of control; under setting [12], 98 % of control; under setting [13], 96 % of control; (dose: 400.0 mg/kg/injection, schedule: Q01DX009 (ip), vehicle: saline with Tween-80) 92 % of control.

Take `C#C[C@]1(O)CC[C@H]2[C@@H]3CCc4cc(O)ccc4[C@H]3CC[C@@]21C`: the T/C is 86 % of control (dose: 5.0 mg/kg/injection, schedule: Q02DX009 (ip), vehicle: Klucel (hydroxypropylcellulose) (HPC)); 97 % of control (dose: 10.0 mg/kg/injection, schedule: Q02DX009 (ip), vehicle: Klucel (hydroxypropylcellulose) (HPC)); 87 % of control (dose: 20.0 mg/kg/injection, schedule: Q02DX009 (ip), vehicle: Klucel (hydroxypropylcellulose) (HPC)); 86 % of control and 96 % of control (dose: 40.0 mg/kg/injection, schedule: Q02DX009 (ip), vehicle: Klucel (hydroxypropylcellulose) (HPC)); 86 % of control (dose: 80.0 mg/kg/injection, schedule: Q02DX009 (ip), vehicle: Klucel (hydroxypropylcellulose) (HPC)).

As to `Cc1c(Cl)cccc1NC(=O)c1ccc(Cl)cc1`, the T/C by setting is: (dose: 75.0 mg/kg/injection, schedule: Q01DX009 (ip), vehicle: Klucel (hydroxypropylcellulose) (HPC)) 94 % of control; (dose: 150.0 mg/kg/injection, schedule: Q01DX009 (ip), vehicle: Klucel (hydroxypropylcellulose) (HPC)) 90 % of control.

For `Oc1ccc(/C=N/NC(=S)NN2CCOCC2)nc1`, the T/C is, setting by setting: (dose: 3.12 mg/kg/injection, schedule: Q01DX009 (ip), vehicle: Klucel (hydroxypropylcellulose) (HPC)) 104 % of control; (dose: 6.25 mg/kg/injection, schedule: Q01DX009 (ip), vehicle: Klucel (hydroxypropylcellulose) (HPC)) 103 % of control; under setting [14], 104 % of control; (dose: 25.0 mg/kg/injection, schedule: Q01DX009 (ip), vehicle: Klucel (hydroxypropylcellulose) (HPC)) 108 % of control.

With `CCCCCCCCCCCCNC(=O)Nc1ccc(C)cc1C`, the T/C by setting is: under setting [8], 92 % of control; under setting [9], 96 % of control.

In the case of `Nc1n[nH]c(N)n1`, the T/C under setting [2] was 99 % of control and 100 % of control; the T/C under setting [8] was 100 % of control (2×) and 108 % of control; the T/C (dose: 100.0 mg/kg/injection, schedule: Q01DX009 (ip), vehicle: saline sonified) was 90 % of control; the T/C under setting [12] is 95 % of control and 97 % of control and 120 % of control; the T/C under setting [9] is 94 % of control and 102 % of control (2×); the T/C (dose: 200.0 mg/kg/injection, schedule: Q01DX009 (ip), vehicle: saline sonified) is 97 % of control and 100 % of control. Further, the T/C is 100 % of control and 107 % of control under setting [13]; 92 % of control and 108 % of control and 110 % of control under setting [10]; 95 % of control and 97 % of control (dose: 400.0 mg/kg/injection, schedule: Q01DX009 (ip), vehicle: saline sonified); 86 % of control and 107 % of control and 111 % of control (dose: 800.0 mg/kg/injection, schedule: Q01DX009 (ip), vehicle: Klucel (hydroxypropylcellulose) (HPC)); 92 % of control and 100 % of control (dose: 800.0 mg/kg/injection, schedule: Q01DX009 (ip), vehicle: saline sonified); 93 % of control (dose: 1600.0 mg/kg/injection, schedule: Q01DX009 (ip), vehicle: saline with Tween-80). Further, the T/C (dose: 3200.0 mg/kg/injection, schedule: Q01DX009 (ip), vehicle: saline with Tween-80) is 97 % of control.

With `CCC(c1ccc(OC)cc1)C(CC)c1ccc(O)c(CN2CCN(C)CC2)c1` (stereo not given), the T/C runs as follows: under setting [1], 93 % of control; under setting [2], 97 % of control.

Turning to `CC(C)CCC(C)C1CCC2C3CC([N+](=O)[O-])=C4CC(OC(=O)c5ccccc5)CCC4(C)C3CCC12C` (stereo not given), the T/C under setting [8] is 105 % of control, the T/C under setting [9] is 110 % of control and the T/C under setting [10] is 105 % of control.

As for `O=C1C=C(c2ccccc2)C(O)(c2ccccc2)C1` (stereo not given), the T/C was 97 % of control under setting [11], 97 % of control under setting [12] and 88 % of control under setting [13].

With `CCC[CH2][Pb]([CH2]CCC)([CH2]CCC)[O]C(=O)CCl`, under setting [6], the T/C is 90 % of control.

For the compound `CC12C=CC3(CCC4C(C)(C)C(O)C(=O)CC4(C)C3CC1=O)C2` (stereo not given), the T/C runs as follows: under setting [8], 97 % of control; under setting [9], 89 % of control; under setting [10], 94 % of control.

For `Cc1c(Cl)cccc1NC(=O)Oc1ccc(Cl)cc1`, the T/C by setting is: under setting [8], 98 % of control; under setting [9], 101 % of control; under setting [10], 96 % of control.

Take `CCOC(=O)NC(CC)CO` (stereo not given): the T/C under setting [8] is 100 % of control; the T/C under setting [4] is 90 % of control; the T/C under setting [9] was 97 % of control; the T/C under setting [5] is 100 % of control; the T/C under setting [10] is 102 % of control; the T/C (dose: 400.0 mg/kg/injection, schedule: Q04DX003 (ip), vehicle: Klucel (hydroxypropylcellulose) (HPC)) is 95 % of control.

With `OCCN1CCN(CC/C=C2/c3ccccc3Sc3ccc(C(F)(F)F)cc32)CC1`, the T/C is 97 % of control (dose: 0.25 mg/kg/injection, schedule: Q01DX009 (ip), vehicle: saline); 106 % of control (dose: 0.5 mg/kg/injection, schedule: Q01DX009 (ip), vehicle: saline); 111 % of control (dose: 1.0 mg/kg/injection, schedule: Q01DX009 (ip), vehicle: saline); 105 % of control (dose: 2.0 mg/kg/injection, schedule: Q01DX009 (ip), vehicle: saline).
